Test results: PubChem BioAssay AID2060495 (Molecular Pharmacology Branch, DTP, NCI, 2025)

System: 521955-158-R2-J5-PDC complex spheroid viability
Assay: Anticancer human tumor 521955-158-R2-J5-PDC patient-derived pancreatic carcinoma cell line growth inhibition [GQUAD]
Details: for IC50: curve of first compound; for viability, T/C: stronger effect = lower value
Summary of the method: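 Multi-cell-type spheroids of tumor cells with HUVEC and mesenchymal stem cells, treated with drug combinations. Concentrations descend in half-log steps from near clinical Cmax, or from 10 microM where Cmax is unknown; viability read-out.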

[1] = second compound 0.0316 µM, first compound 0.0316 µM
[2] = second compound 0.0316 µM, first compound 0.1 µM
[3] = second compound 0.0316 µM, first compound 0.316 µM
[4] = second compound 0.0316 µM, first compound 1 µM
[5] = second compound 0.0316 µM, first compound 3.16 µM
[6] = second compound 0.0316 µM, first compound 10 µM
[7] = second compound 0.1 µM, first compound 0.0316 µM
[8] = second compound 0.1 µM, first compound 0.1 µM
[9] = second compound 0.1 µM, first compound 0.316 µM
[10] = second compound 0.1 µM, first compound 1 µM
[11] = second compound 0.1 µM, first compound 3.16 µM
[12] = second compound 0.1 µM, first compound 10 µM
[13] = second compound 0.316 µM, first compound 0.0316 µM
[14] = second compound 0.316 µM, first compound 0.1 µM
[15] = second compound 0.316 µM, first compound 0.316 µM
[16] = second compound 0.316 µM, first compound 1 µM
[17] = second compound 0.316 µM, first compound 3.16 µM
[18] = second compound 0.316 µM, first compound 10 µM
[19] = second compound 1 µM, first compound 0.0316 µM
[20] = second compound 1 µM, first compound 0.1 µM
[21] = second compound 1 µM, first compound 0.316 µM
[22] = second compound 1 µM, first compound 1 µM
[23] = second compound 1 µM, first compound 3.16 µM
[24] = second compound 1 µM, first compound 10 µM
[25] = second compound 3.16 µM, first compound 0.0316 µM
[26] = second compound 3.16 µM, first compound 0.1 µM
[27] = second compound 3.16 µM, first compound 0.316 µM
[28] = second compound 3.16 µM, first compound 1 µM
[29] = second compound 3.16 µM, first compound 3.16 µM
[30] = second compound 3.16 µM, first compound 10 µM
[31] = second compound 10 µM, first compound 0.0316 µM
[32] = second compound 10 µM, first compound 0.1 µM
[33] = second compound 10 µM, first compound 0.316 µM
[34] = second compound 10 µM, first compound 1 µM
[35] = second compound 10 µM, first compound 3.16 µM
[36] = second compound 10 µM, first compound 10 µM
[37] = second compound 0.0316 µM, first compound 0.000999 µM
[38] = second compound 0.0316 µM, first compound 0.00316 µM
[39] = second compound 0.0316 µM, first compound 0.00999 µM
[40] = second compound 0.0316 µM, first compound 0.0999 µM
[41] = second compound 0.1 µM, first compound 0.000999 µM
[42] = second compound 0.1 µM, first compound 0.00316 µM
[43] = second compound 0.1 µM, first compound 0.00999 µM
[44] = second compound 0.1 µM, first compound 0.0999 µM
[45] = second compound 0.316 µM, first compound 0.000999 µM
[46] = second compound 0.316 µM, first compound 0.00316 µM
[47] = second compound 0.316 µM, first compound 0.00999 µM
[48] = second compound 0.316 µM, first compound 0.0999 µM
[49] = second compound 1 µM, first compound 0.000999 µM
[50] = second compound 1 µM, first compound 0.00316 µM
[51] = second compound 1 µM, first compound 0.00999 µM
[52] = second compound 1 µM, first compound 0.0999 µM
[53] = second compound 3.16 µM, first compound 0.000999 µM
[54] = second compound 3.16 µM, first compound 0.00316 µM
[55] = second compound 3.16 µM, first compound 0.00999 µM
[56] = second compound 3.16 µM, first compound 0.0999 µM
[57] = second compound 10 µM, first compound 0.000999 µM
[58] = second compound 10 µM, first compound 0.00316 µM
[59] = second compound 10 µM, first compound 0.00999 µM
[60] = second compound 10 µM, first compound 0.0999 µM
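Further: spheroids exposed to agents for one week before reading.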
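Wherever viability, T/C is given: 100% = DMSO vehicle control viability.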

Compound: CC1COCCN1c1cc(C2(S(C)(=N)=O)CC2)nc(-c2ccnc3[nH]ccc23)n1 (stereo not drawn) + Cc1[nH]c2ccc(F)cc2c1-c1nc2c3cccnc3c3ncccc3c2[nH]1
- IC50 (second compound 0.0316 µM): 698 nM
- IC50 (second compound 0.1 µM): 793 nM
- IC50 (second compound 0.316 µM): 736 nM
- IC50 (second compound 1 µM): 712 nM
- IC50 (second compound 3.16 µM): 806 nM
- IC50 (second compound 10 µM): 724 nM
- viability, T/C [1]: 113%
- viability, T/C [2]: 103%
- viability, T/C [3]: 114%
- viability, T/C [4]: 22.6%
- viability, T/C [5]: 10.1%
- viability, T/C [6]: 11.7%
- viability, T/C [7]: 96.6%
- viability, T/C [8]: 109%
- viability, T/C [9]: 111%
- viability, T/C [10]: 35.9%
- viability, T/C [11]: 8.56%
- viability, T/C [12]: 8.84%
- viability, T/C [13]: 108%
- viability, T/C [14]: 91.7%
- viability, T/C [15]: 101%
- viability, T/C [16]: 31.7%
- viability, T/C [17]: 9.15%
- viability, T/C [18]: 10.3%
- viability, T/C [19]: 93.2%
- viability, T/C [20]: 104%
- viability, T/C [21]: 117%
- viability, T/C [22]: 27.1%
- viability, T/C [23]: 11.5%
- viability, T/C [24]: 11.7%
- viability, T/C [25]: 85.2%
- viability, T/C [26]: 105%
- viability, T/C [27]: 99.1%
- viability, T/C [28]: 39.3%
- viability, T/C [29]: 13.7%
- viability, T/C [30]: 8.99%
- viability, T/C [31]: 109%
- viability, T/C [32]: 105%
- viability, T/C [33]: 110%
- viability, T/C [34]: 27.4%
- viability, T/C [35]: 14.7%
- viability, T/C [36]: 10.9%

Compound: CCc1c2c(nc3ccc(O)cc13)-c1cc3c(c(=O)n1C2)COC(=O)[C@]3(O)CC + Cc1[nH]c2ccc(F)cc2c1-c1nc2c3cccnc3c3ncccc3c2[nH]1
- IC50 (second compound 0.0316 µM): 1.44 nM
- IC50 (second compound 0.1 µM): 1.57 nM
- IC50 (second compound 0.316 µM): 1.52 nM
- IC50 (second compound 1 µM): 1.48 nM
- IC50 (second compound 3.16 µM): 1.81 nM
- IC50 (second compound 10 µM): 1.61 nM
- viability, T/C [37]: 66.5%
- viability, T/C [38]: 14.4%
- viability, T/C [39]: 8.08%
- viability, T/C [1]: 6.13%
- viability, T/C [40]: 5.29%
- viability, T/C [3]: 2.46%
- viability, T/C [41]: 73.5%
- viability, T/C [42]: 13.8%
- viability, T/C [43]: 8.38%
- viability, T/C [7]: 6.85%
- viability, T/C [44]: 5.08%
- viability, T/C [9]: 3.05%
- viability, T/C [45]: 70.8%
- viability, T/C [46]: 13.3%
- viability, T/C [47]: 7.87%
- viability, T/C [13]: 5.41%
- viability, T/C [48]: 5.92%
- viability, T/C [15]: 2.25%
- viability, T/C [49]: 69.9%
- viability, T/C [50]: 11.7%
- viability, T/C [51]: 7.26%
- viability, T/C [19]: 5.78%
- viability, T/C [52]: 5.91%
- viability, T/C [21]: 1.75%
- viability, T/C [53]: 83.5%
- viability, T/C [54]: 18.2%
- viability, T/C [55]: 8.66%
- viability, T/C [25]: 7.44%
- viability, T/C [56]: 3.96%
- viability, T/C [27]: 2.23%
- viability, T/C [57]: 72.8%
- viability, T/C [58]: 16.9%
- viability, T/C [59]: 11.9%
- viability, T/C [31]: 8.45%
- viability, T/C [60]: 5.37%
- viability, T/C [33]: 2.72%

Compound: Cc1cccc(N(C)C(=O)C2C(O)CCN2c2nc(C)cc(C(F)(F)F)c2C#N)c1 (stereo not drawn) + Cc1[nH]c2ccc(F)cc2c1-c1nc2c3cccnc3c3ncccc3c2[nH]1
- IC50 (second compound 0.0316 µM): > 10000 nM
- IC50 (second compound 0.1 µM): > 10000 nM
- IC50 (second compound 0.316 µM): > 10000 nM
- IC50 (second compound 1 µM): > 10000 nM
- IC50 (second compound 3.16 µM): > 10000 nM
- IC50 (second compound 10 µM): > 10000 nM
- viability, T/C [1]: 111%
- viability, T/C [2]: 85.8%
- viability, T/C [3]: 110%
- viability, T/C [4]: 107%
- viability, T/C [5]: 110%
- viability, T/C [6]: 123%
- viability, T/C [7]: 92.2%
- viability, T/C [8]: 109%
- viability, T/C [9]: 94.7%
- viability, T/C [10]: 106%
- viability, T/C [11]: 126%
- viability, T/C [12]: 120%
- viability, T/C [13]: 91.1%
- viability, T/C [14]: 93.5%
- viability, T/C [15]: 101%
- viability, T/C [16]: 114%
- viability, T/C [17]: 112%
- viability, T/C [18]: 111%
- viability, T/C [19]: 92.7%
- viability, T/C [20]: 100%
- viability, T/C [21]: 108%
- viability, T/C [22]: 105%
- viability, T/C [23]: 128%
- viability, T/C [24]: 115%
- viability, T/C [25]: 110%
- viability, T/C [26]: 88.2%
- viability, T/C [27]: 92.5%
- viability, T/C [28]: 91.8%
- viability, T/C [29]: 132%
- viability, T/C [30]: 120%
- viability, T/C [31]: 115%
- viability, T/C [32]: 104%
- viability, T/C [33]: 104%
- viability, T/C [34]: 122%
- viability, T/C [35]: 126%
- viability, T/C [36]: 113%

Compound: Cn1ncnc1[C@H]1c2n[nH]c(=O)c3cc(F)cc(c23)N[C@@H]1c1ccc(F)cc1 + Cc1[nH]c2ccc(F)cc2c1-c1nc2c3cccnc3c3ncccc3c2[nH]1
- IC50 (second compound 0.0316 µM): > 316 nM
- IC50 (second compound 0.1 µM): > 316 nM
- IC50 (second compound 0.316 µM): > 316 nM
- IC50 (second compound 1 µM): > 316 nM
- IC50 (second compound 3.16 µM): > 316 nM
- IC50 (second compound 10 µM): > 316 nM
- viability, T/C [37]: 95.7%
- viability, T/C [38]: 86.3%
- viability, T/C [39]: 93.5%
- viability, T/C [1]: 91%
- viability, T/C [40]: 73.2%
- viability, T/C [3]: 59.8%
- viability, T/C [41]: 89.4%
- viability, T/C [42]: 106%
- viability, T/C [43]: 90.9%
- viability, T/C [7]: 80.4%
- viability, T/C [44]: 91.1%
- viability, T/C [9]: 74.4%
- viability, T/C [45]: 94.3%
- viability, T/C [46]: 96%
- viability, T/C [47]: 83.6%
- viability, T/C [13]: 88.7%
- viability, T/C [48]: 70.4%
- viability, T/C [15]: 73.1%
- viability, T/C [49]: 91.7%
- viability, T/C [50]: 93.7%
- viability, T/C [51]: 91%
- viability, T/C [19]: 74.2%
- viability, T/C [52]: 102%
- viability, T/C [21]: 73.6%
- viability, T/C [53]: 93%
- viability, T/C [54]: 107%
- viability, T/C [55]: 83.9%
- viability, T/C [25]: 86.8%
- viability, T/C [56]: 70.8%
- viability, T/C [27]: 69.8%
- viability, T/C [57]: 92.7%
- viability, T/C [58]: 80.5%
- viability, T/C [59]: 82.6%
- viability, T/C [31]: 86.1%
- viability, T/C [60]: 77.8%
- viability, T/C [33]: 68.1%
